The values below come from US20100311729A1, “Substituted imidazopyridazines and pyrrolopyrimidines as lipid kinase inhibitors” (priority 2007, published 2010).

Holding throughout (assay type): biochemical
One test deals with T1, PI3K alfa (Homo sapiens, UniProt P42336).
T1 construct: for the p110-a subunit (with a deletion of the first 20 amino acids); His tag (C); made in house; host or cells: baculovirus; Tn5 (Trichoplusia ni) or TiniPro insect cells
Briefly: PI3 kinase assay (Kinase-Glo luminescence), PI3K alfa. The note with it: Enzymatic Data; read-out: PI3K alfa IC50 [umol]. As for the experimental part:
(§1) In a more preferred assay, the kinase reaction is performed in a final volume of 10 μL per well of a low volume non binding CORNING, 384 well black plate (Cat. No. #3676). The final concentrations of ATP and phosphatidyl inositol (PI) in the assay are 1 μM and 10 μg/mL respectively. The reaction is started by the addition of ATP.
(§2) The components of the assay are added per well as follows:
(§3) 50 nL test compounds in 90% DMSO per well, in columns 1-20, 8 concentrations (1/3 and 1/3.33 serial dilution step) in single. • Low control: 50 nL of 90% DMSO in half the wells of columns 23-24 (0.45% in final). • High control: 50 nL of reference compound (e.g. compound of Example 7 in WO 2006/122806, incorporated by reference hereinin that regard) in the other half of columns 23-24 (2.5 μM in final). • Standard: 50 nL of reference compound as just mentioned diluted as the test compounds in columns 21-22 • 20 mL ‘buffer’ are prepared per assay: • 200 μL of 1M TRIS HCl pH7.5 (10 mM in final) • 60 μL of 1M MgCl2 (3 mM in final) • 500 μL of 2M NaCl (50 mM in final) • 100 μL of 10% CHAPS (0.05% in final) • 200 μL of 100 mM DTT (1 mM in final) • 18.94 mL of nanopure water • 10 mL ‘PI’ are prepared per assay: • 200 μL of 1 mg/ml L-alpha-Phosphatidylinositol (Liver Bovine, Avanti Polar Lipids Cat. No. 840042C MW=909.12) prepared in 3% OctylGlucoside (10 μg/ml in final) • 9.8 mL of ‘buffer’ • 10 mL ‘ATP’ are prepared per assay: • 6.7 μL of 3 mM stock of ATP giving a final concentration of 1 μM per well • 10 mL of ‘buffer’ • 2.5 mL of each PI3K construct are prepared per assay in ‘PI’ with the following final concentration : • 10 nM PI3K alfa B-1075 • 25 nM beta BV-949 • 10 nM delta BV-1060 • 150 nM gamma BV-950 • 5 μL of ‘PI/PI3K’ are added per well. • 5 μl ‘ATP’ are added per well to start the reaction. • The plates are then incubated at room temperature for 60 minutes (alfa, beta, delta) or 120 minutes (gamma). • The reaction is terminated by the addition of 10 μL Kinase-Glo (Promega Cat. No. #6714). • The assay plates are read after 10 minutes in Synergy 2 reader (BioTek, Vermont USA) with an integration time of 100 milliseconds and sensitivity set to 191. • Output : The High control is around 60'000 counts and the Low control is 30'000 or lower • This luminescence assay gives a useful Z′ ratio between 0.4 and 0.7
(§4) […] is determined by a four parameter curve fitting routine that comes aloneg with “excel fit”. A 4 Parameter logistic equation is used to calculate IC50 values (IDBS XLfit) of the percentage inhibition of each compound at 8 concentrations (usually 10, 3.0, 1.0, 0.3, 0.1, 0.030, 0.010 and […]). Alternatively, IC50 values are calculated using idbsXLfit model 204, which is a 4 parameter logistic model.
(§5) Testing with the following kinases in the test system mentioned above, with the kinases given in the following tables, the following IC 50 data can be obtained: […]
(Kinase-Glo reads ATP consumption through a luciferase reaction.)

A further test has as its target T2, PI3K beta (Homo sapiens, UniProt P42338).
T2 construct: for the full-length p110-b subunit are generated and fused by overlapping PCR; His tag (C); made in house; host or cells: baculovirus; Tn5 (Trichoplusia ni) or TiniPro insect cells
Description: PI3 kinase assay (Kinase-Glo luminescence), PI3K beta. As to conditions: Enzymatic Data; read-out: PI3K beta IC50 [umol]. As for the experimental part: as §1, §2, §3, §4, §5

A further test addresses T3, PI3K delta (Homo sapiens, UniProt O00329).
T3 construct: for the full-length p110-d subunit are generated and fused by overlapping PCR; His tag (C); made in house; host or cells: baculovirus; Tn5 (Trichoplusia ni) or TiniPro insect cells
Briefly: PI3 kinase assay (Kinase-Glo luminescence), PI3K delta. As to conditions: Enzymatic Data; read-out: PI3K delta IC50 [umol]. As for the experimental part: as §1, §2, §3, §4, §5

Another test deals with T4, PI3K gamma (Homo sapiens, UniProt P48736).
T4 construct: PI3Kγ BV-950 p110g(D144aa)-C-Term His Tag; His tag (C); made in house; host or cells: construct from the Roger Williams lab (MRC LMB) in pVL1393; baculovirus; Tn5 (Trichoplusia ni) or TiniPro insect cells
T4 sequence (P48736 144-1102 limits assumed): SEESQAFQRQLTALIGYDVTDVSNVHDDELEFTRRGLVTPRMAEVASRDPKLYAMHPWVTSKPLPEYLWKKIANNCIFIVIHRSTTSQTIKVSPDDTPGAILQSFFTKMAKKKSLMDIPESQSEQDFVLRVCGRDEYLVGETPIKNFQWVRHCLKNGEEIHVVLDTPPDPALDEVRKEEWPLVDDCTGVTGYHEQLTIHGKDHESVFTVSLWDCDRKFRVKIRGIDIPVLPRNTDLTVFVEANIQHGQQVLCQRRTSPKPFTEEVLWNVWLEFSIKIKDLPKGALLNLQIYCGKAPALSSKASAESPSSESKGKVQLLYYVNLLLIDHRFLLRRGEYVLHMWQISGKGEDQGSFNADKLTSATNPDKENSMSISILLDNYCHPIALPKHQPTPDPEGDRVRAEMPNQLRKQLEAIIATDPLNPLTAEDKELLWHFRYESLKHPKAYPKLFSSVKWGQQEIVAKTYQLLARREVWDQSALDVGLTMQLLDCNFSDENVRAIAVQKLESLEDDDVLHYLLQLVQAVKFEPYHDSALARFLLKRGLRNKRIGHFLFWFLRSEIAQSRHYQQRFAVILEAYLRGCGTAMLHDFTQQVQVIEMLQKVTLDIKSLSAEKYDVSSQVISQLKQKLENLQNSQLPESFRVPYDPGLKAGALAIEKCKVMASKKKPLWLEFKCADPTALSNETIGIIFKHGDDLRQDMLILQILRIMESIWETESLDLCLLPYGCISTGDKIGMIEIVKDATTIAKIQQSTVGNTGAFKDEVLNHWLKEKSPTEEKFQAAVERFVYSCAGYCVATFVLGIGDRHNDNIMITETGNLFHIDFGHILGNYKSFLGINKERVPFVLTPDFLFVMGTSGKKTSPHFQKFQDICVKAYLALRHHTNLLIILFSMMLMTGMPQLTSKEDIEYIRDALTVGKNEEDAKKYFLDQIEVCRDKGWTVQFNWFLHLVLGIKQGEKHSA
Briefly: PI3 kinase assay (Kinase-Glo luminescence), PI3K gamma. The note with it: Enzymatic Data; read-out: PI3K gamma IC50 [umol]. As for the experimental part: as §1, §2, §4

T3 sequence (O00329 with tags, fused parts or gaps limits assumed): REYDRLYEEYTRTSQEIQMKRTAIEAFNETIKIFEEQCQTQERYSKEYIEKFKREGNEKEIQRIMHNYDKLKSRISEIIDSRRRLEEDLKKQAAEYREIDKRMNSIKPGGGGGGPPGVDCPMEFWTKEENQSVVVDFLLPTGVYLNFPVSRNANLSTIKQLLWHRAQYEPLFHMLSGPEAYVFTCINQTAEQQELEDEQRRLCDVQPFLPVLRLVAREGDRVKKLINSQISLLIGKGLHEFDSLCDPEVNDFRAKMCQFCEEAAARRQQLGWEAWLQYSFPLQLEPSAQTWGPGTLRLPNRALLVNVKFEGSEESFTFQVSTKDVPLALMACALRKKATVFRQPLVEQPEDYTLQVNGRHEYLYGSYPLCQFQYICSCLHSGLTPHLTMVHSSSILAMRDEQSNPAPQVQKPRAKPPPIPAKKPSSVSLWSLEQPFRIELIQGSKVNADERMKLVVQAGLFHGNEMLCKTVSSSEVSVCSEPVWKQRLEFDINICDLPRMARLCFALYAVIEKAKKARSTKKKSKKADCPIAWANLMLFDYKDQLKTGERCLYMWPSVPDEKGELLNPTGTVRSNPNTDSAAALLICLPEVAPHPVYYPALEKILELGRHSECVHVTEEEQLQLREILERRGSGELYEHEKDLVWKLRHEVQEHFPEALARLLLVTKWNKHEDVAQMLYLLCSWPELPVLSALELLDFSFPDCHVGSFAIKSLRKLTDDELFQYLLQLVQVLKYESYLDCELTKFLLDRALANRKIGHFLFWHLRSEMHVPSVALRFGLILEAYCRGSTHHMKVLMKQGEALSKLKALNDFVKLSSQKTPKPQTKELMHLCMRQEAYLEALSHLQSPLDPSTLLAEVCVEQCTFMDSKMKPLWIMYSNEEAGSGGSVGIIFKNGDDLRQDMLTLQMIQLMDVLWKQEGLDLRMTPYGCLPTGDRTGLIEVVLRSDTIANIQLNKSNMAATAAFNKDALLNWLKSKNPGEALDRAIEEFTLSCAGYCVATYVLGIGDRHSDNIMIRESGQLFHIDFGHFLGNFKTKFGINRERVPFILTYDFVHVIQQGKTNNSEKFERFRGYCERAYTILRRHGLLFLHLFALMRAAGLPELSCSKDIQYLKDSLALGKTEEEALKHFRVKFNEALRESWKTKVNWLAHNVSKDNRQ
T1 sequence (P42336 with tags, fused parts or gaps limits assumed): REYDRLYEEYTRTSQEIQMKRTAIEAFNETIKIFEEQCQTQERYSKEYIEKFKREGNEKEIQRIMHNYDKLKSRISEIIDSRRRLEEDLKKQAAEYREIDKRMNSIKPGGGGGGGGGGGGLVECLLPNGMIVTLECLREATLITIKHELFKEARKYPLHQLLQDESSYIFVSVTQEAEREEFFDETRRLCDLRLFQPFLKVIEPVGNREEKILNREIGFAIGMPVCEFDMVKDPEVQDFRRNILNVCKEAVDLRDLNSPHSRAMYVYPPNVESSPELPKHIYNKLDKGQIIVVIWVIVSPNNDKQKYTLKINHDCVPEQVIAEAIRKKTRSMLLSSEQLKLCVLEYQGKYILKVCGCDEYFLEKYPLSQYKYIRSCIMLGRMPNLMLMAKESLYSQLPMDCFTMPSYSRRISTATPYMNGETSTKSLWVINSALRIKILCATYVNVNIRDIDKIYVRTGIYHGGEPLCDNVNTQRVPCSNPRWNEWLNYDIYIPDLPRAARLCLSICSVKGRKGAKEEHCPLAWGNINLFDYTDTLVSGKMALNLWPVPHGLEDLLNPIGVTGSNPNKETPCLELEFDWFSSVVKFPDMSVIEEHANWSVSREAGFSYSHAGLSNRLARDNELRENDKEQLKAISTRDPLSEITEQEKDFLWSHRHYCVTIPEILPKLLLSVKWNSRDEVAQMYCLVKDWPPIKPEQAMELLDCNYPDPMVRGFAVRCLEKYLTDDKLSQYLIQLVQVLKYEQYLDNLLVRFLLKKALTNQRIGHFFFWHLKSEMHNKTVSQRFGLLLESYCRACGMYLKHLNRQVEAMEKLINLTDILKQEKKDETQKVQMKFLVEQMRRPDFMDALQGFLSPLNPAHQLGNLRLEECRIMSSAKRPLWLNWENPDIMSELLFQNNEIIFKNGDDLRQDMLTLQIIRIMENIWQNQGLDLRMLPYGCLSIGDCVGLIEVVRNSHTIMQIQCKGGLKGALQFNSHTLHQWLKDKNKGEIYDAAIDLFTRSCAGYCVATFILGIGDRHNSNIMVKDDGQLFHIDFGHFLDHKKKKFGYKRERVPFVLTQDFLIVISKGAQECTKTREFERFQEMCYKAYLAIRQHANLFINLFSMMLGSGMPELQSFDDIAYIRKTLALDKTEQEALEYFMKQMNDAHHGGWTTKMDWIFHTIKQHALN
T2 sequence (P42338 with tags, fused parts or gaps limits assumed): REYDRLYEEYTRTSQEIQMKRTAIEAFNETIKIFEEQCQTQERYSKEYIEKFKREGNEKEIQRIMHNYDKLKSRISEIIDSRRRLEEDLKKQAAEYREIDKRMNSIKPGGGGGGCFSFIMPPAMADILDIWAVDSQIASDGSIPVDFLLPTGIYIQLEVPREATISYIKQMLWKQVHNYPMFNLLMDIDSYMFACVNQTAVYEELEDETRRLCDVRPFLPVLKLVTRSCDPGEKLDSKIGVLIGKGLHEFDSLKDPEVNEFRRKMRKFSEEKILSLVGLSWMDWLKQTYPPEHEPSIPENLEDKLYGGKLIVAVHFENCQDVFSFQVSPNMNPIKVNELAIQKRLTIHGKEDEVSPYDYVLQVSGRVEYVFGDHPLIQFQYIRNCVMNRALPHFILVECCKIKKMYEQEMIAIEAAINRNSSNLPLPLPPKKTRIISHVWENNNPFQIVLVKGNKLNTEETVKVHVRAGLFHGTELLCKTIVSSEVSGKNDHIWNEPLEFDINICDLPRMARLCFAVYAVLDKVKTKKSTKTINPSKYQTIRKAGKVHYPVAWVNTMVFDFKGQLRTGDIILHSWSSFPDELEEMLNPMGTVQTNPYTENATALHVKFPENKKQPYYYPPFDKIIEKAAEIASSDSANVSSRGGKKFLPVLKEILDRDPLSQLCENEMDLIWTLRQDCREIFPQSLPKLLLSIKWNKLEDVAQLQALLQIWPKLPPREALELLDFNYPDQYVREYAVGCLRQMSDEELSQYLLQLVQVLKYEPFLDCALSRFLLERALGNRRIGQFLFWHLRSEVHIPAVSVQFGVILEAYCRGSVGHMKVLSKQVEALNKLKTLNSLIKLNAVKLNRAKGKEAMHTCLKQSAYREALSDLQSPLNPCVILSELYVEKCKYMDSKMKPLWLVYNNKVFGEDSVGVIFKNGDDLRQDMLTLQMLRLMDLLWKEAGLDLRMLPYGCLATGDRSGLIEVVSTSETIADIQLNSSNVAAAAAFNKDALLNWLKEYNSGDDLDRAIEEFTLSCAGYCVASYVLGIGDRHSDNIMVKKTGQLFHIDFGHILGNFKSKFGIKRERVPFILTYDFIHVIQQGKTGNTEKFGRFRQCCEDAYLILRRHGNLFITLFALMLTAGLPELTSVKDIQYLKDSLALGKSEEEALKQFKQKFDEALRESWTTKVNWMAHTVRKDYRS

Turning to `NCCCOc1ccc(-c2cnc3ccc(-c4cnc(N)c(C(F)(F)F)c4)nn23)cc1OC(F)(F)F` [Example 43, 5-{3-[4-(3-Amino-propoxy)-3-trifluoro-methoxy-phenyl]-imidazo[1,2-b]pyri-dazin-6-yl}-3-trifluoro-methyl-pyridin-2-ylamine], the IC50 is 472 nM on PI3K alfa, 528 nM at PI3K beta, 403 nM on PI3K delta and 8440 nM at PI3K gamma.

With `COc1ccc(-c2ccc3ncc(-c4ccc(NS(C)(=O)=O)cc4)n3n2)cc1OC` [Example 44, N-{4-[6-(3,4-Dimethoxy-phenyl)-imidazo [1,2-b]pyridazin-3-yl]-phenyl}-methane-sulfonamide], the IC50 was 297 nM at PI3K alfa, 2220 nM on PI3K beta, 336 nM at PI3K delta and 3500 nM at PI3K gamma.

For `CS(=O)(=O)Nc1ccc(-c2cnc3ccc(-c4cnc(N)c(C(F)(F)F)c4)nn23)cc1` [Example 45, N-{4-[6-(6-Amino-5-trifluoro-methyl-pyridin-3-yl)-imidazo [1,2-b]pyridazin-3-yl]-phenyl}-methane-sulfonamide], the IC50 on PI3K alfa was found to be 154 nM; at PI3K beta it was 378 nM; at PI3K delta, 282 nM; at PI3K gamma, 7070 nM.

For the compound `COc1ccc(-c2ccc3ncc(-c4cnc(N)c(C(F)(F)F)c4)n3n2)cc1` [Example 46, 5-[6-(4-Methoxy-phenyl)-imidazo[1,2 b]pyridazin-3-yl]-3 trifluoro-methyl-pyridin-2-ylamine], the IC50 is 1620 nM at PI3K alfa, 6280 nM on PI3K beta, 2980 nM at PI3K delta and above 9100 nM on PI3K gamma.

As to `COc1ccc(-c2ccc3ncc(-c4cnc5[nH]ccc5c4)n3n2)cc1` [Example 47, 6-(4-Methoxy-phenyl)-3-(1H-pyrrolo [2,3-b]pyridin-5-yl)-imidazo [1,2-b] pyridazine], the IC50 at PI3K alfa is 2720 nM; at PI3K beta it was above 9100 nM; at PI3K delta, 3840 nM; at PI3K gamma, above 9100 nM.

With `COc1ccc(-c2ccc3ncc(-c4cnc(N)c(C(F)(F)F)c4)n3n2)cc1F` [Example 48, 5-[6-(3-Fluoro-4-methoxy-phenyl)-imidazo [1,2-b]pyridazin-3-yl]-3-trifluoro-methyl-pyridin-2-ylamine], the IC50 on PI3K alfa was 1120 nM; at PI3K beta it was 6790 nM; on PI3K delta, 2440 nM; at PI3K gamma, above 9100 nM.

As to `COc1ccc(-c2ccc3ncc(-c4cnc5[nH]ccc5c4)n3n2)cc1F` [Example 49, 6-(3-Fluoro-4-methoxy-phenyl)-3-(1H-pyrrolo [2,3-b]pyridin-5-yl)-imidazo [1,2-b] pyridazine], the IC50 at PI3K alfa is 1620 nM; on PI3K beta, above 9100 nM; at PI3K delta, 4810 nM; at PI3K gamma it was 6040 nM.

On to `COC(=O)NCCCOc1ccc(-c2ccc3ncc(-c4cnc(N)c(C(F)(F)F)c4)n3n2)cc1OC` [Example 50, (3-{4-[3-(6-Amino-5-trifluoromethyl-pyridin-3-yl)-imidazo[1,2-b]pyridazin-6yl]-2-methoxy-phenoxy}-propyl)-carbamic acid methyl ester], for which the IC50 on PI3K alfa was determined as 165 nM; on PI3K beta, 2190 nM; on PI3K delta, 1010 nM; at PI3K gamma, 2740 nM.

As for `COc1cc(-c2ccc3ncc(-c4cnc(N)c(C(F)(F)F)c4)n3n2)ccc1OCCCNC(=O)C(C)C` [Example 51], the IC50 stood at 92 nM on PI3K alfa, 1390 nM at PI3K beta, 886 nM at PI3K delta and 6050 nM on PI3K gamma.

In the case of `COc1cc(-c2ccc3ncc(-c4cnc(N)c(C(F)(F)F)c4)n3n2)ccc1OCCCNC(C)=O` [Example 52, N-(3-{4-[3-(6-Amino-5-trifluoro-methyl-pyridin-3-yl)-imidazo [1,2-b]pyridazin-6-yl]-2-methoxy-phenoxy}-propyl)-acetamide], the IC50 on PI3K alfa turned out to be 22 nM; on PI3K beta, 364 nM; on PI3K delta, 295 nM; on PI3K gamma, 2220 nM.
